ChEMBL document CHEMBL1201862, “PubChem BioAssay data set” (2004)
Several values for one entry are separate records, joined by “and”; a condition that tells them apart may be missing. Equal entries are not always repeated.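 Interpolation was linear, between the two tested concentrations surrounding the appropriate level; five concentrations were tested over 48 hours in 96-well plates. GI50 = concentration required for 50% inhibition of growth.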 Activity calls are given as the source filed them. No stated cut-off is given here; in the data, active = GI50 up to about 1.1 µM and inactive = higher.

Columns and labels:
Assay in all cases: inhibition of tumour cell growth, NCI panel, 48 h
SNB-75 = system: SNB-75
HCC 2998 = system: HCC 2998
M14 = system: M14
LOX IMVI = system: LOX IMVI
HCT-116 = system: HCT-116
SK-MEL-28 = system: SK-MEL-28
SF-268 = system: SF-268
SR = system: SR
T47D = system: T47D
OVCAR-4 = system: OVCAR-4
786-0 = system: 786-0
NCI-H522 = system: NCI-H522
CCRF-CEM = system: CCRF-CEM
OVCAR-8 = system: OVCAR-8
Hs-578T = system: Hs-578T
ACHN = system: ACHN
K562 = system: K562
KM12 = system: KM12
A498 = system: A498
OVCAR-5 = system: OVCAR-5
EKVX = system: EKVX
NCI-H460 = system: NCI-H460
NCI-H226 = system: NCI-H226
MOLT-4 = system: MOLT-4
SK-MEL-5 = system: SK-MEL-5
PC-3 = system: PC-3
TK-10 = system: TK-10
COLO 205 = system: COLO 205
HOP-62 = system: HOP-62
UACC-257 = system: UACC-257
SF-539 = system: SF-539
MDA-N = system: MDA-N
MDA-MB-231 = system: MDA-MB-231
RXF 393 = system: RXF 393
HT-29 = system: HT-29
SNB-19 = system: SNB-19
CAKI-1 = system: CAKI-1
UO-31 = system: UO-31
IGROV-1 = system: IGROV-1
RPMI-8226 = system: RPMI-8226
SK-OV-3 = system: SK-OV-3
MCF7 = system: MCF7
A549 = system: A549
Malme-3M = system: Malme-3M
DU-145 = system: DU-145
SW-620 = system: SW-620
NCI-H23 = system: NCI-H23
HOP-92 = system: HOP-92
MDA-MB-435 = system: MDA-MB-435
NCI/ADR-RES = system: NCI/ADR-RES
SF-295 = system: SF-295
SN12C = system: SN12C
OVCAR-3 = system: OVCAR-3
HL-60 = system: HL-60
UACC-62 = system: UACC-62
U-251 = system: U-251
HCT-15 = system: HCT-15
SK-MEL-2 = system: SK-MEL-2

SMILES: COC12C=CC(CC1)C(C)(C)C2O (stereo not given)
- GI50 (SNB-75): 87.5 µM (inactive) and 52.7 µM (inactive)

SMILES: C/C(=C\CNc1ncnc2[nH]c(Cl)nc12)CO
- GI50 (HCC 2998): > 100 µM (inactive)
- GI50 (M14): > 100 µM (inactive)
- GI50 (LOX IMVI): > 100 µM (inactive)
- GI50 (HCT-116): > 100 µM (inactive)
- GI50 (SK-MEL-28): > 100 µM (inactive)
- GI50 (SF-268): > 100 µM (inactive)
- GI50 (SR): > 100 µM (inactive)
- GI50 (T47D): > 100 µM (inactive)
- GI50 (OVCAR-4): > 100 µM (inactive)
- GI50 (786-0): > 100 µM (inactive)
- GI50 (NCI-H522): > 100 µM (inactive)
- GI50 (CCRF-CEM): > 100 µM (inactive)
- GI50 (OVCAR-8): > 100 µM (inactive)
- GI50 (Hs-578T): > 100 µM (inactive)
- GI50 (ACHN): > 100 µM (inactive)
- GI50 (K562): > 100 µM (inactive)
- GI50 (KM12): > 100 µM (inactive)
- GI50 (A498): > 100 µM (inactive)
- GI50 (SNB-75): > 100 µM (inactive)
- GI50 (OVCAR-5): > 100 µM (inactive)
- GI50 (EKVX): > 100 µM (inactive)
- GI50 (NCI-H460): > 100 µM (inactive)
- GI50 (NCI-H226): > 100 µM (inactive)
- GI50 (MOLT-4): > 100 µM (inactive)
- GI50 (SK-MEL-5): > 100 µM (inactive)
- GI50 (PC-3): > 100 µM (inactive)
- GI50 (TK-10): > 100 µM (inactive)
- GI50 (COLO 205): > 100 µM (inactive)
- GI50 (HOP-62): > 100 µM (inactive)
- GI50 (UACC-257): > 100 µM (inactive)
- GI50 (SF-539): > 100 µM (inactive)
- GI50 (MDA-N): > 100 µM (inactive)
- GI50 (MDA-MB-231): > 100 µM (inactive)
- GI50 (RXF 393): > 100 µM (inactive)
- GI50 (HT-29): > 100 µM (inactive)
- GI50 (SNB-19): > 100 µM (inactive)
- GI50 (CAKI-1): > 100 µM (inactive)
- GI50 (UO-31): > 100 µM (inactive)
- GI50 (IGROV-1): > 100 µM (inactive)
- GI50 (RPMI-8226): > 100 µM (inactive)
- GI50 (SK-OV-3): > 100 µM (inactive)
- GI50 (MCF7): > 100 µM (inactive)
- GI50 (A549): > 100 µM (inactive)
- GI50 (Malme-3M): > 100 µM (inactive)
- GI50 (DU-145): > 100 µM (inactive)
- GI50 (SW-620): > 100 µM (inactive)
- GI50 (NCI-H23): > 100 µM (inactive)
- GI50 (HOP-92): > 100 µM (inactive)
- GI50 (MDA-MB-435): > 100 µM (inactive)
- GI50 (NCI/ADR-RES): > 100 µM (inactive)
- GI50 (SF-295): > 100 µM (inactive)
- GI50 (SN12C): > 100 µM (inactive)
- GI50 (OVCAR-3): > 100 µM (inactive)
- GI50 (HL-60): > 100 µM (inactive)

SMILES: N=C(N)N/N=C\c1c(-c2ccccc2)nc2sccn12
- GI50 (HCC 2998): 4.54 µM (inactive)
- GI50 (LOX IMVI): 16.3 µM (inactive)
- GI50 (HCT-116): 15.2 µM (inactive)
- GI50 (SK-MEL-28): 15.7 µM (inactive)
- GI50 (SF-268): 16.4 µM (inactive)
- GI50 (SR): 22.4 µM (inactive)
- GI50 (T47D): 14.3 µM (inactive)
- GI50 (OVCAR-4): 15.8 µM (inactive)
- GI50 (786-0): 14.1 µM (inactive)
- GI50 (NCI-H522): 12.1 µM (inactive)
- GI50 (CCRF-CEM): 21.6 µM (inactive)
- GI50 (OVCAR-8): 16.5 µM (inactive)
- GI50 (Hs-578T): 14 µM (inactive)
- GI50 (ACHN): 16.9 µM (inactive)
- GI50 (K562): 17.3 µM (inactive)
- GI50 (KM12): 14.2 µM (inactive)
- GI50 (A498): 19.5 µM (inactive)
- GI50 (SNB-75): 12.2 µM (inactive)
- GI50 (OVCAR-5): 16.9 µM (inactive)
- GI50 (EKVX): 14.5 µM (inactive)
- GI50 (NCI-H460): 16.2 µM (inactive)
- GI50 (NCI-H226): 17.6 µM (inactive)
- GI50 (MOLT-4): 18.5 µM (inactive)
- GI50 (SK-MEL-5): 15.6 µM (inactive)
- GI50 (PC-3): 15.1 µM (inactive)
- GI50 (UACC-62): 15.9 µM (inactive)
- GI50 (TK-10): 17.4 µM (inactive)
- GI50 (COLO 205): 12 µM (inactive)
- GI50 (HOP-62): 15.7 µM (inactive)
- GI50 (UACC-257): 13.4 µM (inactive)
- GI50 (SF-539): 16.5 µM (inactive)
- GI50 (MDA-N): 14.1 µM (inactive)
- GI50 (MDA-MB-231): 12.7 µM (inactive)
- GI50 (RXF 393): 13.4 µM (inactive)
- GI50 (HT-29): 15.3 µM (inactive)
- GI50 (SNB-19): 14.3 µM (inactive)
- GI50 (CAKI-1): 16 µM (inactive)
- GI50 (UO-31): 17.8 µM (inactive)
- GI50 (IGROV-1): 13.6 µM (inactive)
- GI50 (RPMI-8226): 20 µM (inactive)
- GI50 (SK-OV-3): 19 µM (inactive)
- GI50 (A549): 17.5 µM (inactive)
- GI50 (Malme-3M): 16.3 µM (inactive)
- GI50 (DU-145): 19 µM (inactive)
- GI50 (U-251): 15.2 µM (inactive)
- GI50 (SW-620): 12.9 µM (inactive)
- GI50 (NCI-H23): 12.5 µM (inactive)
- GI50 (HOP-92): 14.1 µM (inactive)
- GI50 (MDA-MB-435): 15.6 µM (inactive)
- GI50 (NCI/ADR-RES): 18.2 µM (inactive)
- GI50 (SF-295): 14.7 µM (inactive)
- GI50 (HCT-15): 15.7 µM
- GI50 (SN12C): 15.4 µM (inactive)
- GI50 (SK-MEL-2): 15.1 µM (inactive)
- GI50 (HL-60): 25.8 µM (inactive)
